The text below walks through data of patent publication US20260200926A1, “TREM2 MODULATORS” (Muna Therapeutics ApS, priority 2022, published 2026).

For the assay, the target named is T1, Human TREM2 (Homo sapiens, UniProt Q9NZC2).
T1 construct: expressed in transfected cells
Put plainly: Human TREM2 activity: cellular phosphorylation of Syk (AlphaLISA SureFire Ultra p-SYK) in HEK293/DAP12+TREM2 stable cell line. In kind it is cell-based. The following applies: for Emax: HEK293, maximal response relative to reference agonist example 1B (remaining examples), read-out: Emax; for EC50: phospho-Syk AlphaLISA signal, HEK293/DAP12+TREM2 cells, concentration giving 50% of maximal response, read-out: EC50. The text has this:
Human TREM2, in vitro Measurement of Triggering Receptor Expressed on Myeloid Cells 2 activity using cellular phosphorylation of Spleen Tyrosine Kinase (“Syk”) Assay
HEK-293 cells were co-transfected with separate plasmids encoding TREM2 and DAP12 to generate a stable cell line. After antibiotic selection, functional clone pool analysis and two successive limiting dilutions, the final clone “HEK293/DAP12+TREM2” underwent a qPCR analysis and a pharmacological validation.
TREM2 signaling through DAP12 was monitored in the HEK293/DAP12+TREM2 stable cell line by measuring the phosphorylation levels of the Syk kinase using the commercially available AlphaLISA SureFire Ultra p-SYK (Tyr525/526) Assay Kit (PerkinElmer #ALSU-PSYK), based on the Perkin Elmer AlphaScreen/AlphaLISA technology.
Compounds are transferred to the test plate and tested in full dose response, 8 concentrations in quadruplicate data points. Compound serial dilutions were performed at Cybi-Felix instrument in 100% DMSO and the dose response curves were assembled in automated fashion in 384MPT at Hamilton STARlet instrument. All the stock solutions were prepared at 20 mM in 100% DMSO. For compounds testing, the starting concentration was 100 μM, dilution steps 1:6. […] Finally, a 384MPT reformatted for all compounds at 8 concentrations, quadruplicates, was used as “mother to child” process with a CyBi®-Well dispenser in which 1 μL of each compound was moved into a destination plate pre-filled with 65.6 μL of EMEM cell culture medium (BIOWHITTAKER_cat.BE12-125F), thus obtaining 3× concentrated compounds working solution. In columns 1-2 and 23-24 the control wells were added. In particular, dose response curves of a reference control agonist were included in column 1 and 24 as reference control agonist (Reference control agonists used include Human TREM2 polyclonal Antibody AF1828: R&D Systems; Human TREM2 monoclonal Antibody MAB1828: R&D Systems). The dose response curves were tested starting at 30 μM, dilution step 1:6. Both “source” compound plate and “destination” compound plate were barcoded and a relationship between the two plates was thus generated.
HEK293/DAP12+TREM2 cells were cultured in EMEM medium supplemented with IX Penicillin/Streptomycin (BIOWHITTAKER_cat.DE17-602E), ULTRAGLUTAMINE I 200 mM, 10% Fetal Bovine Serum plus antibiotics referred to as “HEK293 Culture Medium”. The day before the experiment, cells were detached by gentle wash with DPBS, followed by 5 min incubation at 37° C. with Trypsin solution. Cells were then diluted in HEK293 Culture Medium without antibiotics, counted and seeded into 384-well poly-D-Lysine coated microplates black/clear bottom (GREINER 781946) at a density of 10,000 cells/well in 25 μL/well by the use of a MATRIX WellMate dispenser. Plates were placed into a humidified cell culture incubator at 37° C. with 5% CO2 until the experimental day. 20-24 hours after seeding mature medium was removed and replaced with 10 μL/well of EMEM cell medium supplemented with 0.1% Pluronic F-68 non-ionic surfactant (Thermofisher, 24040032), referred to as “Assay Buffer”, using the CyBi®-Well instrument. Then 5 μL/well of Assay Buffer containing 3× concentrated test compounds or the reference control agonist (in 0.5% final DMSO concentration) were added to the cells with the CyBi®-Well instrument. Cell plates were incubated for 30 min into a humidified cell culture incubator at 37° C. with 5% CO2·, then the medium was removed by manually discard. 20 μL/well of lysis buffer were dispensed using the CyBi®-Well instrument and plates were incubated for 10 min at room temperature on a plate shaker (350 rpm). Then, 10 μL/well of lysate were transferred to the Alpha plates. The CyBi®-Well instrument was used to dispense 5 μL/well of AlphaLISA Acceptor Bead Solution in IX Immunoassay buffer (Perkin Elmer AL000F). Then the plates were sealed with Heat sealing foil, shaked for 2 minutes (350 rpm) and incubated for 1 hour at room temperature.
Background: In Alpha technology, singlet oxygen from a donor bead excites a nearby acceptor bead.

T1 sequence (Q9NZC2 19-230): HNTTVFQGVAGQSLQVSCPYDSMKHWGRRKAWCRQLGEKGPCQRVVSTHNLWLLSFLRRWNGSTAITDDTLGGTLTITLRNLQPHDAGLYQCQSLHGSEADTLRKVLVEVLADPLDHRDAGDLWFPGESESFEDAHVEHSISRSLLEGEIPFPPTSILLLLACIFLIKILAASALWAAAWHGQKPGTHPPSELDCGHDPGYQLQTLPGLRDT
T1 sequence (O43914 22-113 partner): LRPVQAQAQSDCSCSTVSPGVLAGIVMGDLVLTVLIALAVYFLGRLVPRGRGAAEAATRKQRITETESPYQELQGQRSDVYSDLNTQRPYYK

As usually defined, the Emax is the size of the effect at its maximum, as opposed to the concentration needed. What is called EC50 is the midpoint of the concentration-response curve. Take `Cc1nc2c(-c3ccc(C(F)(F)F)nc3)nc(N3C[C@@H](c4cnn(C)c4)OC(C)(C)C3)nc2c(=O)n1C` (single isomer, unassigned) [Example 102A]: the Emax was 75 to 110% and the EC50 was 10 to 100 nM.
In the same order, the values of `Cc1nc2c(-c3ccc(C(F)(F)F)cc3F)nc(N3C[C@H](c4cnn(C)c4)OC(C)(C)C3)nc2c(=O)n1C` (single isomer, unassigned) [Example 100B] are below 75% and 100 to 1000 nM.
For `Cc1cc([C@H]2CN(c3nc(-c4ccc(C(F)(F)F)cc4F)c4nc(C)n(C)c(=O)c4n3)CCO2)ccn1` (single isomer, unassigned) [Example 21B] the same measures were 75 to 110% and below 1 nM.
In the same order, the values of `Cc1nc2c(-c3ccc(Cl)cc3F)nc(N3C[C@H](c4cnn(C)c4)OC(C)(C)C3)cc2c(=O)n1C` (single isomer, unassigned) [Example 112B] are below 75% and 100 to 1000 nM.
With `Cc1nc2c(-c3ccc(F)cc3F)nc(N3C[C@@H](c4cnn(C5CC5)c4)O[C@@H](C)C3)nc2c(=O)n1C` (single isomer, unassigned) [Example 177A], the Emax is below 75% and the EC50 was in the range of 10 to 100 nM.
For `Cc1nc2c(-c3ccc(Cl)cc3F)nc([C@@H]3CCO[C@H](c4cnn(C5CC5)c4)C3)nc2c(=O)n1C` (single isomer, unassigned) [Example 24A] the same measures were 75 to 110% and 1 to 10 nM.
For the molecule `Cc1nc2c(-c3ccc(Cl)cc3F)nc(N3CCOC(c4cnn(C5CN(C)C5)c4)C3)nc2c(=O)n1C` (stereo not drawn) [Example 42, 8-(4-chloro-2-fluorophenyl)-2,3-dimethyl-6-(2-(1-(1-methylazetidin-3-yl)-1H-pyrazol-4-yl)morpholino)pyrimido[5,4-d]pyrimidin-4 (3H)-one], the Emax was below 75% and the EC50 lay in the range of 10 to 100 nM.
For `Cc1nc2c(-c3ccc(Cl)cc3F)nc(N3CCO[C@H](c4cnn(C)c4)C3)nc2c(=O)[nH]1` (single isomer, unassigned) [Example 203A], the Emax was below 75% and the EC50 lay in the range of 100 to 1000 nM.
In the same order, the values of `Cc1nc2c(-c3ccc(C(F)(F)F)nc3)nc(N3CCO[C@@H](c4cnn(C)c4)C3)cc2c(=O)n1C` (single isomer, unassigned) [Example 127A] are below 75% and 100 to 1000 nM.
For `Cc1nc2c(-c3ccc(Cl)cc3F)nc(N3CC[C@H](Oc4cnn(C)c4)C3)nc2c(=O)n1C` [Example 74, (S)-8-(4-chloro-2-fluorophenyl)-2,3-dimethyl-6-(3-((1-methyl-1H-pyrazol-4-yl)oxy)pyrrolidin-1-yl)pyrimido[5,4-d]pyrimidin-4 (3H)-one] the same measures were below 75% and above 1000 nM.
For `Cc1nc2c(-c3ccc(Cl)cc3F)nc([C@H]3C[C@@H](c4cnn(C)c4)OC(C)(C)C3)nc2c(=O)n1C` (single isomer, unassigned) [Example 111A] the same measures were 75 to 110% and 10 to 100 nM.
As for `Cc1nc2c(-c3ccc(Cl)cc3F)nc(N3CCCC(N4CCOCC4)C3)nc2c(=O)n1C` (stereo not drawn) [Example 78, 8-(4-chloro-2-fluorophenyl)-2,3-dimethyl-6-(3-morpholinopiperidin-1-yl)pyrimido[5,4-d]pyrimidin-4 (3H)-one], the Emax lay in the range of 75 to 110% and the EC50 is 100 to 1000 nM.
In the same order, the values of `Cc1nc2c(-c3ccc(C(F)(F)F)nc3)nc([C@@H]3CCO[C@H](c4cnn(C)c4)C3)nc2c(=O)n1C` (single isomer, unassigned) [Example 88A] are below 75% and above 1000 nM.
In the same order, the values of `Cc1cc([C@@H]2CN(c3cc4c(=O)n(C)c(C)nc4c(-c4ccc(Cl)cc4F)n3)CCO2)ccn1` (single isomer, unassigned) [Example 135A] are 75 to 110% and 1 to 10 nM.
Consider `Cc1nc2c(-c3ccc(Cl)cc3F)nc(N3CCOC4(CCCC4)C3)nc2c(=O)n1C` [Example 54, 8-(4-chloro-2-fluorophenyl)-2,3-dimethyl-6-(6-oxa-9-azaspiro[4.5]decan-9-yl)pyrimido[5,4-d]pyrimidin-4(3H)-one], for which the Emax was below 75% and the EC50 was above 1000 nM.
For `Cc1nc2c(-c3ccc(C(F)(F)F)nc3)nc(N3CCOC(c4cnn(C)c4)C3)nc2c(=O)n1C` (stereo not drawn) [Example 4, 2,3-dimethyl-6-(2-(1-methyl-1H-pyrazol-4-yl)morpholino)-8-(6-(trifluoromethyl)pyridin-3-yl)pyrimido[5,4-d]pyrimidin-4(3H)-one] the same measures were 75 to 110% and 100 to 1000 nM.
In the same order, the values of `Cc1nc2c(-c3cc(F)c(F)cc3F)nc(N3CCO[C@@H](c4cnn(C)c4)C3)cc2c(=O)n1C` (single isomer, unassigned) [Example 130A] are below 75% and 10 to 100 nM.
For `Cc1cc([C@H]2CN(c3cc4c(=O)n(C)c(C)nc4c(-c4ccc(Cl)cc4F)n3)CC3(CC3)O2)ccn1` (single isomer, unassigned) [Example 128B] the same measures were 75 to 110% and 100 to 1000 nM.
Regarding `Cc1cc([C@H]2CN(c3cc4c(=O)n(C)c(C)nc4c(-c4ccc(F)cc4F)n3)CC(C)(C)O2)ccn1` (single isomer, unassigned) [Example 159B], the Emax was below 75% and the EC50 fell in the range of 100 to 1000 nM.
For `Cc1nc2c(-c3ccc(F)cc3F)nc(N3CCOC(c4cnn(C)c4)C3)nc2c(=O)n1C` (stereo not drawn) [Example 5, 8-(2,4-difluorophenyl)-2,3-dimethyl-6-(2-(1-methyl-1H-pyrazol-4-yl)morpholino)pyrimido[5,4-d]pyrimidin-4(3H)-one] the same measures were below 75% and 10 to 100 nM.
For `Cc1cc([C@H]2CN(c3cc4c(=O)n(C)c(C)nc4c(-c4cc(F)c(F)cc4F)n3)CCO2)ccn1` (single isomer, unassigned) [Example 141B] the same measures were 75 to 110% and 10 to 100 nM.
In the same order, the values of `Cc1nc2c(-c3ccc(Cl)cc3F)nc(N3C[C@@H](c4cnn(C)c4)OC4(CC4)C3)c(F)c2c(=O)n1C` (single isomer, unassigned) [Example 173A] are below 75% and 10 to 100 nM.
Consider `Cc1nc2c(-c3ccc(C(F)(F)F)cc3F)nc(N3CCO[C@H](c4cnn(C)c4)C3)nc2c(=O)n1C` (single isomer, unassigned) [Example 25A], for which the Emax was below 75% and the EC50 lay within 10 to 100 nM.
For `C[C@H]1CN(c2cc3c(=O)n(C)c(C(F)(F)F)nc3c(-c3ccc(F)cc3F)n2)C[C@@H](c2cnn(C3CC3)c2)O1` (single isomer, unassigned) [Example 193A] the same measures were 75 to 110% and 1 to 10 nM.
For the molecule `Cc1nc2c(-c3cc(F)c(F)cc3F)nc([C@H]3CCO[C@@H](c4cnn(C5CC5)c4)C3)cc2c(=O)n1C` (single isomer, unassigned) [Example 139B], the Emax is below 75% and the concentration giving a half-maximal response (EC50) was in the range of 100 to 1000 nM.
On to `Cc1nc2c(-c3ccc(Cl)cc3F)nc([C@@H]3CCO[C@H](c4cnn(C)c4)C3)nc2c(=O)n1C` (single isomer, unassigned) [Example 67], for which the Emax was above 110% and the EC50 was 100 to 1000 nM.
For `Cc1cc([C@H]2CN(c3cc4c(=O)n(C)c(C)nc4c(-c4ccc(C(F)(F)F)nc4)n3)C[C@@H](C)O2)ccn1` (single isomer, unassigned) [Example 199B], the maximal effect (Emax) lay in the range of 75 to 110% and the EC50 is below 1 nM.
